According to ChEMBL document CHEMBL5584313, “Design and Synthesis of 7-Oxabicyclo[2.2.1]heptane-2,3-dicarboxylic Acid Derivatives as PP5 Inhibitors To Reverse Temozolomide Resistance in Glioblastoma Multiforme” (J Med Chem, 2024):
Activity calls are given as the source filed them. The calls are words filed in the database; no cut-off is given here.

Columns and labels:
[1] = Cmax in Sprague-Dawley rat at 25 mg/kg, po measured upto 24 hrs by LC-MS/MS method; assay type: ADME, organism-based; details: in vivo
[2] = Toxicity in BALB/c nude mouse xenografted with U-87 MG cells assessed as lung damage at 1.5 to 3 mg/kg, po administered every other day for 18 days in presence of 40 mg/kg TMZ by H and E staining based assay; assay type: organism-based; details: in vivo, 432 h, dose 1.5-3 mg/kg, time 18 day
[3] = MRT(0 to infinity) in Sprague-Dawley rat at 25 mg/kg, po measured upto 24 hrs by LC-MS/MS method; assay type: ADME, organism-based; details: in vivo
U-87MG ATCC [4] = experiment: Downregulation of MGMT expression in human U-87 MG cells at 25 uM incubated for 24 hrs in presence of TMZ by Western blotting analysis; assay type: functional, cell-based
U-87 MG [5] = experiment: Antitumor activity against human U-87 MG cells xenografted in BALB/c nude mouse assessed as increase in p53 expression at 1.5 to 3 mg/kg, po measured after 4 hrs in presence of 40 mg/kg TMZ by Western blotting analysis; assay type: functional, organism-based; details: U-87MG ATCC, dose 1.5-3 mg/kg
Homo sapiens [6] = species on record: Homo sapiens; experiment: Selectivity ratio of IC50 for PP1 (unknown origin ) to IC50 for PP5 (unknown origin)
[7] = Tmax in Sprague-Dawley rat at 25 mg/kg, po measured upto 24 hrs by LC-MS/MS method; assay type: ADME, organism-based; details: in vivo
U-87 MG [8] = experiment: Antitumor activity against human U-87 MG cells xenografted in BALB/c nude mouse assessed as tumor tissue necrosis at 1.5 to 3 mg/kg, po administered every other day for 18 days in presence of 40 mg/kg TMZ; assay type: functional, organism-based; details: U-87MG ATCC, dose 1.5-3 mg/kg, time 18.0 day
[9] = Toxicity in BALB/c nude mouse xenografted with U-87 MG cells assessed as spleen damage at 1.5 to 3 mg/kg, po administered every other day for 18 days in presence of 40 mg/kg TMZ by H and E staining based assay; assay type: organism-based; details: in vivo, 432 h, dose 1.5-3 mg/kg, time 18 day
Homo sapiens [10] = species on record: Homo sapiens; experiment: Selectivity ratio of IC50 for PP2A (unknown origin ) to IC50 for PP5 (unknown origin)
U-87 MG [11] = experiment: Antitumor activity against human U-87 MG cells xenografted in BALB/c nude mouse assessed as reduction in MGMT expression at 1.5 to 3 mg/kg, po measured after 4 hrs in presence of 40 mg/kg TMZ by Western blotting analysis; assay type: functional, organism-based; details: U-87MG ATCC, dose 1.5-3 mg/kg
[12] = Cytotoxicity against human BEAS-2B incubated for 48 hrs by CCK8 assay; assay type: toxicity, cell-based; details: BEAS-2B cells
U-87MG ATCC [13] = experiment: Downregulation of cyclin D1 expression in human U-87 MG cells at 25 uM incubated for 24 hrs by Western blotting analysis; assay type: functional, cell-based
[14] = Oral bioavailability in Sprague-Dawley rat at 25 mg/kg measured upto 24 hrs by LC-MS/MS method; assay type: ADME, organism-based; details: in vivo
U-87 MG [15] = experiment: Induction of apoptosis in human U-87 MG cells assessed as G0/G1 phase cells at 5 uM incubated for 24 hrs by propidium iodide staining based flow cytometry analysis (reference value: 58.8%); assay type: functional, U-87MG ATCC
[16] = Half-life in Sprague-Dawley rat at 25 mg/kg, po measured upto 24 hrs by LC-MS/MS method; assay type: ADME, organism-based; details: in vivo
U-87MG ATCC [17] = experiment: Downregulation of MGMT expression in human U-87 MG cells at 25 uM incubated for 24 hrs by Western blotting analysis; assay type: functional, cell-based
[18] = Apparent volume of distribution in Sprague-Dawley rat at 25 mg/kg, po measured upto 24 hrs by LC-MS/MS method; assay type: ADME, organism-based; details: in vivo
[19] = Toxicity in BALB/c nude mouse xenografted with U-87 MG cells assessed as kidney damage at 1.5 to 3 mg/kg, po administered every other day for 18 days in presence of 40 mg/kg TMZ by H and E staining based assay; assay type: organism-based; details: in vivo, 432 h, dose 1.5-3 mg/kg, time 18 day
[20] = Toxicity in BALB/c nude mouse xenografted with U-87 MG cells assessed as change in body weight at 1.5 to 3 mg/kg, po administered every other day for 18 days in presence of 40 mg/kg TMZ; assay type: organism-based; details: in vivo, 432 h, dose 1.5-3 mg/kg, time 18 day
U-87 MG [21] = experiment: Synergistic antiproliferative activity against human U-87 MG cells at 10 uM in presence of TMZ; assay type: functional, cell-based; details: U-87MG ATCC
U-87 MG [22] = experiment: Antitumor activity against human U-87 MG cells xenografted in BALB/c nude mouse assessed as tumor growth inhibition at 1.5 mg/kg, po administered every other day for 18 days in presence of 40 mg/kg TMZ; assay type: functional, U-87MG ATCC; details: 432 h, time 18 day, read-out: TGI
[23] = Apparent clearance in Sprague-Dawley rat at 25 mg/kg, po measured upto 24 hrs by LC-MS/MS method; assay type: ADME, organism-based; details: in vivo, read-out: CL(app) (converted)
[24] = Apparent clearance in Sprague-Dawley rat at 5 mg/kg, iv measured upto 24 hrs by LC-MS/MS method; assay type: ADME, organism-based; details: in vivo, read-out: CL(app) (converted)
[25] = Stability in mouse plasma assessed as half life measured upto 300 mins by LC-MS/MS analysis; assay type: ADME, cell-free
U-87 MG [26] = experiment: Antitumor activity against human U-87 MG cells xenografted in BALB/c nude mouse assessed as tumor growth inhibition at 3 mg/kg, po administered every other day for 18 days in presence of 40 mg/kg TMZ; assay type: functional, U-87MG ATCC; details: 432 h, time 18 day, read-out: TGI
[27] = AUC(0 to infinity) in Sprague-Dawley rat at 25 mg/kg, po measured upto 24 hrs by LC-MS/MS method; assay type: ADME, organism-based; details: in vivo
[28] = Cytotoxicity against HEK293T cells incubated for 48 hrs by CCK8 assay; assay type: toxicity, cell-based, HEK-293T; details: human
[29] = Stability of compound in water assessed as remaining compound after 24 hrs; assay type: physicochemical; details: read-out: Stability
[30] = Tmax in Sprague-Dawley rat at 5 mg/kg, iv measured upto 24 hrs by LC-MS/MS method; assay type: ADME, organism-based; details: in vivo
U-87 MG [31] = experiment: Antitumor activity against human U-87 MG cells xenografted in BALB/c nude mouse assessed as increase in p53 expression at 3 mg/kg, po measured after 4 hrs by Western blotting analysis; assay type: functional, organism-based; details: U-87MG ATCC
U-87 MG [32] = experiment: Antitumor activity against human U-87 MG cells xenografted in BALB/c nude mouse assessed as reduction in tumor weight at 3 mg/kg, po administered every other day for 18 days in presence of 40 mg/kg TMZ; assay type: functional, organism-based; details: U-87MG ATCC, time 18.0 day
[33] = MRT(0 to infinity) in Sprague-Dawley rat at 5 mg/kg, iv measured upto 24 hrs by LC-MS/MS method; assay type: ADME, organism-based; details: in vivo
U-87MG ATCC [34] = experiment: Upregulation of p21 expression in human U-87 MG cells at 6.25 to 100 uM after 24 hrs by Western blotting analysis; assay type: functional, cell-based; details: dose 6.25-100 µM
U-87MG ATCC [35] = experiment: Upregulation of p53 expression in human U-87 MG cells at 25 uM after 24 hrs in presence TMZ by Western blotting analysis; assay type: functional, cell-based
A549 = experiment: Cytotoxicity against human A549 cells incubated for 48 hrs by CCK8 assay; assay type: functional, cell-based; details: A549, 48 h
[36] = Stability of compound in stimulated intestinal fluid assessed as remaining compound after 24 hrs by HPLC method; assay type: ADME; details: simulated intestinal fluid, read-out: Stability
[37] = Stability of compound in stimulated gastric fluid assessed as remaining compound after 24 hrs by HPLC method; assay type: ADME; details: simulated gastric fluid, read-out: Stability

With `O=C(O)[C@@H]1[C@H](C(=O)n2ccc3ccccc32)[C@H]2CC[C@@H]1O2` the Cmax [1] was 11300 ng/mL, the Activity [2] was “Non-Toxic” and the MRT inf [3] was 5 h. The Activity (U-87MG ATCC [4]) was “Active”, the Activity (U-87 MG [5]) was “Active” and the Ratio IC50 (Homo sapiens [6]) was 21.4. For the same compound, the Tmax [7] was 1.17 h, the Activity (U-87 MG [8]) was “Active” and the Activity [9] was “Non-Toxic”. For the same compound, the Ratio IC50 (Homo sapiens [10]) was 38, the Activity (U-87 MG [11]) was “Active” and the IC50 at 48 h [12] was 57.8 µM. For the same compound, the Activity (U-87MG ATCC [13]) was “Active”, the bioavailability [14] was 82% and the Activity (U-87 MG [15]) was 72.2%. For the same compound, the half-life [16] was 236 min, the Activity (U-87MG ATCC [17]) was “Active” and the Vz [18] was 2628.04 mL/kg. The Activity [19] was “Non-Toxic”, the Activity [20] was “Non-Toxic” and the Activity (U-87 MG [21]) was “Active”. It also gave an inhibition in vivo at 1.5 mg/kg (U-87 MG [22]) of 70.9%, a CL/F [23] of 7.69 mL/min/kg and a clearance [24] of 6.3 mL/min/kg. The half-life [25] was 125 min, the inhibition in vivo at 3 mg/kg (U-87 MG [26]) was 87.7% and the AUC(0-inf) [27] was 54400 ng·h/mL. For the same compound, the IC50 at 48 h [28] was over 200 µM, the remaining at 24 h [29] was 98.3% and the Tmax [30] was 1.2 min. For the same compound, the Activity (U-87 MG [31]) was “Active”, the Activity (U-87 MG [32]) was “Active” and the MRT inf [33] was 5.52 h. For the same compound, the Activity (U-87MG ATCC [34]) was “Active”, the Activity (U-87MG ATCC [35]) was “Active” and the IC50 (A549) was 69.6 µM. For the same compound, the remaining at 24 h [36] was 96% and the remaining at 24 h [37] was 92%.
